Measurements reported in patent publication US11319299B2, “Substituted carboxamides as inhibitors of WDR5 protein-protein binding” (PROPELLON THERAPEUTICS INC., priority 2016, dated 2022).

These compounds were tested against WDR5 (Homo sapiens (Human), UniProt P61964) (assay: Surface Plasmon Resonance (SPR) assay, KD and residence time). Conditions: surface plasmon resonance (SPR) assay; read-out: WDR5 binding affinity (KD).
Format: binding

Question: How did the Kd turn out when C[C@@H]1CN(c2cc(F)c(-c3ccc(N4CCCC4)nc3)cc2NC(=O)c2c[nH]c(=O)cc2C(F)(F)F)C[C@H](C)N1C [Example 261, N-[4-fluoro-5-(6-pyrrolidin-1-ylpyridin-3-yl)-2-[(3R,5S)-3,4,5-trimethylpiperazin-1-yl]phenyl]-6-oxo-4-(trifluoromethyl)-1H-pyridine-3-carboxamide] was run?
Answer: 1.64 nM

Question: COc1cc(Cl)cc(C(=O)Nc2cc(-c3cnc(N4CCOCC4)nc3)c(F)cc2N2C[C@@H](C)N(C)[C@@H](C)C2)c1 [Example 265, 3-chloro-N-[4-fluoro-5-(2-morpholin-4-ylpyrimidin-5-yl)-2-[(3R,5S)-3,4,5-trimethylpiperazin-1-yl]phenyl]-5-methoxybenzamide] was tested. Which Kd did it give?
Answer: 28.3 nM

Question: Which Kd does the source give for C[C@@H]1CN(c2cc(F)c(-c3cnc(N4CCOCC4)nc3)cc2NC(=O)c2ccc(F)c(Cl)c2F)C[C@H](C)N1C [Example 266, 3-chloro-2,4-difluoro-N-[4-fluoro-5-(2-morpholin-4-ylpyrimidin-5-yl)-2-[(3R,5S)-3,4,5-trimethylpiperazin-1-yl]phenyl]benzamide] here?
Answer: 13.7 nM

Question: How did the Kd turn out when C[C@@H]1CN(c2cc(F)c(C3=CCN(C)CC3)cc2NC(=O)c2c[nH]c(=O)cc2C(F)(F)F)C[C@H](C)N1C [Example 267, N-[4-fluoro-5-(1-methyl-3,6-dihydro-2H-pyridin-4-yl)-2-[(3R,5S)-3,4,5-trimethylpiperazin-1-yl]phenyl]-6-oxo-4-(trifluoromethyl)-1H-pyridine-3-carboxamide] was run?
Answer: 10.7 nM

Question: For Cc1cc(C#N)ncc1-c1cc(NC(=O)c2c[nH]c(=O)cc2C(F)(F)F)c(N2C[C@@H](C)N(C)[C@@H](C)C2)cc1F [Example 269, N-[5-(6-cyano-4-methylpyridin-3-yl)-4-fluoro-2-[(3R,5S)-3,4,5-trimethylpiperazin-1-yl]phenyl]-6-oxo-4-(trifluoromethyl)-1H-pyridine-3-carboxamide], which Kd is on record?
Answer: 8.74 nM

Question: How did the Kd turn out when C[C@@H]1CN(c2cc(F)c(C3=CCN(c4ccccn4)CC3)cc2NC(=O)c2c[nH]c(=O)cc2C(F)(F)F)C[C@H](C)N1C [Example 270, N-[4-fluoro-5-(1-pyridin-2-yl-3,6-dihydro-2H-pyridin-4-yl)-2-[(3R,5S)-3,4,5-trimethylpiperazin-1-yl]phenyl]-6-oxo-4-(trifluoromethyl)-1H-pyridine-3-carboxamide] was run?
Answer: 0.938 nM

Question: With Cc1cnc(N2CC=C(c3cc(NC(=O)c4c[nH]c(=O)cc4C(F)(F)F)c(N4C[C@@H](C)N(C)[C@@H](C)C4)cc3F)CC2)nc1 [Example 271, N-[4-fluoro-5-[1-(5-methylpyrimidin-2-yl)-3,6-dihydro-2H-pyridin-4-yl]-2-[(3R,5S)-3,4,5-trimethylpiperazin-1-yl]phenyl]-6-oxo-4-(trifluoromethyl)-1H-pyridine-3-carboxamide] as the compound, how does the Kd read?
Answer: 0.499 nM

Question: For C[C@@H]1CN(c2ccc(-c3cc(NC(=O)c4c[nH]c(=O)cc4C(F)(F)F)c(N4C[C@@H](C)N(C)[C@@H](C)C4)cc3F)cn2)C[C@H](C)O1 [Example 272, N-[4-fluoro-5-[6-[(2R,6S)-2,6-dimethylmorpholin-4-yl]pyridin-3-yl]-2-[(3S,5R)-3,4,5-trimethylpiperazin-1-yl]phenyl]-6-oxo-4-(trifluoromethyl)-1H-pyridine-3-carboxamide], which Kd is on record?
Answer: 0.532 nM

Question: For C[C@@H]1CN(c2cc(F)c(C3=CCN(c4ncc(Cl)cn4)CC3)cc2NC(=O)c2c[nH]c(=O)cc2C(F)(F)F)C[C@H](C)N1C [Example 275, N-[5-[1-(5-chloropyrimidin-2-yl)-3,6-dihydro-2H-pyridin-4-yl]-4-fluoro-2-[(3R,5S)-3,4,5-trimethylpiperazin-1-yl]phenyl]-6-oxo-4-(trifluoromethyl)-1H-pyridine-3-carboxamide], which Kd is on record?
Answer: 1.54 nM

Question: Which Kd does the source give for CCOC(=O)c1ccnc(N2CC=C(c3cc(NC(=O)c4c[nH]c(=O)cc4C(F)(F)F)c(N4C[C@@H](C)N(C)[C@@H](C)C4)cc3F)CC2)n1 [Example 276, ethyl 2-[4-[2-fluoro-5-[[6-oxo-4-(trifluoromethyl)-1H-pyridine-3-carbonyl]amino]-4-[(3R,5S)-3,4,5-trimethylpiperazin-1-yl]phenyl]-3,6-dihydro-2H-pyridin-1-yl]pyrimidine-4-carboxylate] here?
Answer: 1.67 nM

Question: How did the Kd turn out when CNC1CCN(c2cc(F)c(-c3cnc(N4CCOCC4)nc3)cc2NC(=O)c2c[nH]c(=O)cc2C(F)(F)F)C1 (stereo not shown) [Example 277, N-[4-fluoro-2-[3-(methylamino)pyrrolidin-1-yl]-5-(2-morpholin-4-ylpyrimidin-5-yl)phenyl]-6-oxo-4-(trifluoromethyl)-1H-pyridine-3-carboxamide] was run?
Answer: 14.9 nM

Question: How did the Kd turn out when C[C@@H]1CN(c2cc(F)c(-c3cnc(N4CCOCC4)nc3)cc2NC(=O)c2cc(O)cc(C(F)(F)F)c2)C[C@H](C)N1C [Example 280, N-[4-fluoro-5-(2-morpholin-4-ylpyrimidin-5-yl)-2-[(3R,5S)-3,4,5-trimethylpiperazin-1-yl]phenyl]-3-hydroxy-5-(trifluoromethyl)benzamide] was run?
Answer: 3.12 nM

Question: For C[C@@H]1CN(c2cc(F)c(-c3cnc(N4CCOCC4)nc3)cc2NC(=O)c2cccc(O)c2)C[C@H](C)N1C [Example 281, N-[4-fluoro-5-(2-morpholin-4-ylpyrimidin-5-yl)-2-[(3R,5S)-3,4,5-trimethylpiperazin-1-yl]phenyl]-3-hydroxybenzamide], which Kd is on record?
Answer: 29.1 nM

Question: For C[C@@H]1CN(c2cc(F)c(-c3cnc(N4CCOCC4)nc3)cc2NC(=O)c2c(O)cnc3ccccc23)C[C@H](C)N1C [Example 282, N-[4-fluoro-5-(2-morpholin-4-ylpyrimidin-5-yl)-2-[(3R,5S)-3,4,5-trimethylpiperazin-1-yl]phenyl]-3-hydroxyquinoline-4-carboxamide], which Kd is on record?
Answer: 1.98 nM

Question: With CN(C)[C@@H]1CCN(c2cc(F)c(-c3cnc(N4CCOCC4)nc3)cc2NC(=O)c2cn(C)nc2C(F)(F)F)C1 [Example 283, N-[4-fluoro-5-(2-morpholin-4-ylpyrimidin-5-yl)-2-[(3R)-3-(dimethylamino)pyrrolidin-1-yl]phenyl]-1-methyl-3-(trifluoromethyl)pyrazole-4-carboxamide] as the compound, how does the Kd read?
Answer: 14.8 nM

Question: C[C@@H]1CN(c2cc(F)c(C3=CCN(C(=O)N(C)C)CC3)cc2NC(=O)c2c[nH]c(=O)cc2C(F)(F)F)C[C@H](C)N1C [Example 285, N-[5-[1-(dimethylcarbamoyl)-3,6-dihydro-2H-pyridin-4-yl]-4-fluoro-2-[(3R,5S)-3,4,5-trimethylpiperazin-1-yl]phenyl]-6-oxo-4-(trifluoromethyl)-1H-pyridine-3-carboxamide] was tested. Which Kd did it give?
Answer: 1.01 nM

Question: C[C@@H]1CN(c2cc(F)c(C3=CCN(C(=O)N4CCCC4)CC3)cc2NC(=O)c2c[nH]c(=O)cc2C(F)(F)F)C[C@H](C)N1C [Example 286, N-[4-fluoro-5-[1-(pyrrolidine-1-carbonyl)-3,6-dihydro-2H-pyridin-4-yl]-2-[(3R,5S)-3,4,5-trimethylpiperazin-1-yl]phenyl]-6-oxo-4-(trifluoromethyl)-1H-pyridine-3-carboxamide] was tested. Which Kd did it give?
Answer: 1.18 nM

Question: With C[C@@H]1CN(c2cc(F)c(C3=CCN(C(=O)N4CCN(C)CC4)CC3)cc2NC(=O)c2c[nH]c(=O)cc2C(F)(F)F)C[C@H](C)N1C [Example 287, N-[4-fluoro-5-[1-(4-methylpiperazine-1-carbonyl)-3,6-dihydro-2H-pyridin-4-yl]-2-[(3R,5S)-3,4,5-trimethylpiperazin-1-yl]phenyl]-6-oxo-4-(trifluoromethyl)-1H-pyridine-3-carboxamide] as the compound, how does the Kd read?
Answer: 1.39 nM

Question: How did the Kd turn out when C[C@@H]1CN(c2cc(F)c(C3=CCN(C(=O)Oc4ccccc4)CC3)cc2NC(=O)c2c[nH]c(=O)cc2C(F)(F)F)C[C@H](C)N1C [Example 288, phenyl 4-[2-fluoro-5-[[6-oxo-4-(trifluoromethyl)-1H-pyridine-3-carbonyl]amino]-4-[(3R,5S)-3,4,5-trimethylpiperazin-1-yl]phenyl]-3,6-dihydro-2H-pyridine-1-carboxylate] was run?
Answer: 1.11 nM

Question: With C[C@@H]1CC(N2CC=C(c3cc(NC(=O)c4c[nH]c(=O)cc4C(F)(F)F)c(N4C[C@@H](C)N(C)[C@@H](C)C4)cc3F)CC2)C[C@H](C)O1 (stereo partly drawn) [Example 289, N-[4-fluoro-5-[1-[(2R,6S)-2,6-dimethyloxan-4-yl]-3,6-dihydro-2H-pyridin-4-yl]-2-[(3S,5R)-3,4,5-trimethylpiperazin-1-yl]phenyl]-6-oxo-4-(trifluoromethyl)-1H-pyridine-3-carboxamide] as the compound, how does the Kd read?
Answer: 3.74 nM

Question: For C[C@@H]1CN(c2cc(F)c(-c3cnc(N4CCOCC4)nc3)cc2NC(=O)c2ccc(O)cc2C(F)(F)F)C[C@H](C)N1C [Example 290, N-[4-fluoro-5-(2-morpholin-4-ylpyrimidin-5-yl)-2-[(3R,5S)-3,4,5-trimethylpiperazin-1-yl]phenyl]-4-hydroxy-2-(trifluoromethyl)benzamide], which Kd is on record?
Answer: 8.9 nM

Question: With C[C@@H]1CN(c2cc(F)c(-c3cnc(N4CCOCC4)nc3)cc2NC(=O)c2cc(O)cc(F)c2F)C[C@H](C)N1C [Example 291, 2,3-difluoro-N-[4-fluoro-5-(2-morpholin-4-ylpyrimidin-5-yl)-2-[(3R,5S)-3,4,5-trimethylpiperazin-1-yl]phenyl]-5-hydroxybenzamide] as the compound, how does the Kd read?
Answer: 4.21 nM

Question: With C[C@@H]1CN(c2cc(F)c(-c3ccnc(OCC4CCC4)c3)cc2NC(=O)c2c[nH]c(=O)cc2C(F)(F)F)C[C@H](C)N1C [Example 292, N-[5-[2-(cyclobutylmethoxy)pyridin-4-yl]-4-fluoro-2-[(3R,5S)-3,4,5-trimethylpiperazin-1-yl]phenyl]-6-oxo-4-(trifluoromethyl)-1H-pyridine-3-carboxamide] as the compound, how does the Kd read?
Answer: 4.32 nM

Question: For C[C@@H]1CN(c2cc(F)c(-c3ccnc(OCC(C)(C)C)c3)cc2NC(=O)c2c[nH]c(=O)cc2C(F)(F)F)C[C@H](C)N1C [Example 293, N-[5-[2-(2,2-dimethylpropoxy)pyridin-4-yl]-4-fluoro-2-[(3R,5S)-3,4,5-trimethylpiperazin-1-yl]phenyl]-6-oxo-4-(trifluoromethyl)-1H-pyridine-3-carboxamide], which Kd is on record?
Answer: 3 nM

Question: With CCN(CC)c1ncc(-c2cc(NC(=O)c3c[nH]c(=O)cc3C(F)(F)F)c(N3C[C@@H](C)N(C)[C@@H](C)C3)cc2F)cn1 [Example 294, N-[5-[2-(diethylamino)pyrimidin-5-yl]-4-fluoro-2-[(3R,5S)-3,4,5-trimethylpiperazin-1-yl]phenyl]-6-oxo-4-(trifluoromethyl)-1H-pyridine-3-carboxamide] as the compound, how does the Kd read?
Answer: 2.24 nM
